Laboratory results reported in ChEMBL document CHEMBL5113453, “Design, synthesis, and biological evaluation of a new series of pyrazole derivatives: Discovery of potent and selective JNK3 kinase inhibitors” (Bioorg Med Chem, 2022).

Experiments:
[1] = target: T1, Mitogen-activated protein kinase 10 (Homo sapiens, UniProt P53779); test: Inhibition of JNK3 (unknown origin) at 1 uM relative to control
[2] = system: Malme-3M; test: Antiproliferative activity against human Malme-3M cells measured after 48 hrs by SRB assay; assay type: functional, cell-based; settings: for IC50: 48 h; for TGI: time 48 hrs
[3] = target: T2, Mitogen-activated protein kinase 8 (Homo sapiens, UniProt P45983); test: Inhibition of JNK1-alpha-1 (unknown origin) at 1 uM relative to control
[4] = system: Hs-578T; test: Antiproliferative activity against human Hs-578T cells measured after 48 hrs by SRB assay; assay type: functional, cell-based; settings: for IC50: 48 h; for TGI: time 48 hrs
[5] = system: MOLT-4; test: Antiproliferative activity against human MOLT-4 cells measured after 48 hrs by SRB assay; assay type: functional, cell-based; settings: for IC50: MOLT-4, 48 h; for TGI: MOLT-4, time 48 hrs
[6] = system: WI-38; test: Antiproliferative activity against human WI-38 cells measured by MTT assay; assay type: functional, cell-based
[7] = system: RPMI-8226; test: Antiproliferative activity against human RPMI-8226 cells measured after 48 hrs by SRB assay; assay type: functional, cell-based; settings: for IC50: RPMI-8226, 48 h; for TGI: RPMI-8226, time 48 hrs
[8] = system: TK-10; test: Antiproliferative activity against human TK-10 cells measured after 48 hrs by SRB assay; assay type: functional, cell-based; settings: for IC50: TK-10, 48 h; for TGI: TK-10, time 48 hrs
[9] = system: SF-295; test: Antiproliferative activity against human SF-295 cells measured after 48 hrs by SRB assay; assay type: functional, cell-based; settings: for IC50: SF-295, 48 h; for TGI: SF-295, time 48 hrs
[10] = system: COLO 205; test: Antiproliferative activity against human COLO 205 cells measured after 48 hrs by SRB assay; assay type: functional, cell-based; settings: for IC50: COLO 205, 48 h; for TGI: COLO 205, time 48 hrs
[11] = system: OVCAR-3; test: Antiproliferative activity against human OVCAR-3 cells measured after 48 hrs by SRB assay; assay type: functional, cell-based; settings: for IC50: OVCAR-3, 48 h; for TGI: OVCAR-3, time 48 hrs
[12] = system: UO-31; test: Antiproliferative activity against human UO-31 cells measured after 48 hrs by SRB assay; assay type: functional, cell-based; settings: for IC50: UO-31, 48 h; for TGI: UO-31, time 48 hrs
[13] = system: RPMI-8226; test: Induction of necrosis in human RPMI-8226 cells assessed as LDH release at 5.47 uM; assay type: functional
[14] = target: T1, Mitogen-activated protein kinase 10; test: Inhibition of JNK3 in human HEK293 cells transfected with JNK3-NanoLuc fusion vector measured after 1 hr by NanoBRET assay; assay type: cell-based
[15] = target: Cytochrome P450 2D6 (Homo sapiens, UniProt P10635); test: Inhibition of CYP2D6 (unknown origin) using EOMCC as a substrate; assay type: ADME
[16] = target: Vascular endothelial growth factor receptor 3 (Homo sapiens, UniProt P35916); test: Inhibition of FLT4 (unknown origin)
[17] = system: RPMI-8226; test: Induction of apoptosis in human RPMI-8226 cells assessed as fold increase in caspase-3/7 activity at 0.87 uM; assay type: functional
[18] = system: EKVX; test: Antiproliferative activity against human EKVX cells measured after 48 hrs by SRB assay; assay type: functional, cell-based; settings: for IC50: 48 h; for TGI: time 48 hrs
[19] = system: A498; test: Antiproliferative activity against human A498 cells measured after 48 hrs by SRB assay; assay type: functional, cell-based; settings: for IC50: A498, 48 h; for TGI: A498, time 48 hrs
[20] = target: T2, Mitogen-activated protein kinase 8; test: Inhibition of JNK1-alpha-1 (unknown origin)
[21] = system: OVCAR-8; test: Antiproliferative activity against human OVCAR-8 cells measured after 48 hrs by SRB assay; assay type: functional, cell-based; settings: for IC50: OVCAR-8, 48 h; for TGI: OVCAR-8, time 48 hrs
[22] = system: MDA-MB-435; test: Antiproliferative activity against human MDA-MB-435 cells measured after 48 hrs by SRB assay; assay type: functional, cell-based; settings: for IC50: MDA-MB-435, 48 h; for TGI: MDA-MB-435, time 48 hrs
[23] = system: SK-MEL-5; test: Antiproliferative activity against human SK-MEL-5 cells measured after 48 hrs by SRB assay; assay type: functional, cell-based; settings: for IC50: SK-MEL-5, 48 h; for TGI: SK-MEL-5, time 48 hrs
[24] = system: SK-OV-3; test: Antiproliferative activity against human SK-OV-3 cells measured after 48 hrs by SRB assay; assay type: functional, cell-based; settings: for IC50: SK-OV-3, 48 h; for TGI: SK-OV-3, time 48 hrs
[25] = system: RPMI-8226; test: Induction of necrosis in human RPMI-8226 cells assessed as LDH release at 0.87 uM; assay type: functional
[26] = system: PC-3; test: Antiproliferative activity against human PC-3 cells measured after 48 hrs by SRB assay; assay type: functional, cell-based; settings: for IC50: PC-3, 48 h; for TGI: PC-3, time 48 hrs
[27] = system: SNB-19; test: Antiproliferative activity against human SNB-19 cells measured after 48 hrs by SRB assay; assay type: functional, cell-based; settings: for IC50: SNB-19, 48 h; for TGI: SNB-19, time 48 hrs
[28] = target: Mitogen-activated protein kinase 9 (Homo sapiens, UniProt P45984); test: Inhibition of JNK2-alpha-2 (unknown origin)
[29] = system: RPMI-8226; test: Induction of apoptosis in human RPMI-8226 cells assessed as fold increase in caspase-3/7 activity at 5.47 uM; assay type: functional
[30] = system: Serine/threonine-protein kinase B-raf (Homo sapiens), P15056 [V600E]; test: Inhibition of B-RAF V600E mutant (unknown origin) at 1 uM relative to control
[31] = system: HCT-15; test: Antiproliferative activity against human HCT-15 cells measured after 48 hrs by SRB assay; assay type: functional, cell-based; settings: for IC50: HCT-15, 48 h; for TGI: HCT-15, time 48 hrs
[32] = system: ACHN; test: Antiproliferative activity against human ACHN cells measured after 48 hrs by SRB assay; assay type: functional, cell-based; settings: for IC50: 48 h; for TGI: time 48 hrs
[33] = organism: Homo sapiens; test: Ratio IC50 for inhibition of FLT4 (unknown origin) over IC50 for JNK3 (unknown origin)
[34] = target: Cytochrome P450 3A4 (Homo sapiens, UniProt P08684); test: Inhibition of CYP3A4 (unknown origin) using BOMCC as a substrate; assay type: ADME
[35] = system: HCC 2998; test: Antiproliferative activity against human HCC 2998 cells measured after 48 hrs by SRB assay; assay type: functional, cell-based; settings: for IC50: HCC 2998, 48 h; for TGI: HCC 2998, time 48 hrs
[36] = system: HOP-92; test: Antiproliferative activity against human HOP-92 cells measured after 48 hrs by SRB assay; assay type: functional, cell-based; settings: for IC50: HOP-92, 48 h; for TGI: HOP-92, time 48 hrs
[37] = system: OVCAR-5; test: Antiproliferative activity against human OVCAR-5 cells measured after 48 hrs by SRB assay; assay type: functional, cell-based; settings: for IC50: OVCAR-5, 48 h; for TGI: OVCAR-5, time 48 hrs

T1 sequence (P53779 whole entry): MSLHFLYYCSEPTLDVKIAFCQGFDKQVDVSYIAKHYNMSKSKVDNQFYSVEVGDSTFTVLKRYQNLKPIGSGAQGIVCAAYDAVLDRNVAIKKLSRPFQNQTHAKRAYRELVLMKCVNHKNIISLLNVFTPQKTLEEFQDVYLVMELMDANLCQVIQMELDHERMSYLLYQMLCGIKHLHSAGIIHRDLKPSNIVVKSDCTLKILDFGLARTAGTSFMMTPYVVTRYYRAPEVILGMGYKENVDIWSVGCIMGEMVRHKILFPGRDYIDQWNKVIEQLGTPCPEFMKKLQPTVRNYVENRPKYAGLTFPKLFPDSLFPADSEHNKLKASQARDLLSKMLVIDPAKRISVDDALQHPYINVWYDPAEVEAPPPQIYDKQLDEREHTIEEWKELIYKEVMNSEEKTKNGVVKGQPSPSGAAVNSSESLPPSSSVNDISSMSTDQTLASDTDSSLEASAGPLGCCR
T2 sequence (P45983 whole entry): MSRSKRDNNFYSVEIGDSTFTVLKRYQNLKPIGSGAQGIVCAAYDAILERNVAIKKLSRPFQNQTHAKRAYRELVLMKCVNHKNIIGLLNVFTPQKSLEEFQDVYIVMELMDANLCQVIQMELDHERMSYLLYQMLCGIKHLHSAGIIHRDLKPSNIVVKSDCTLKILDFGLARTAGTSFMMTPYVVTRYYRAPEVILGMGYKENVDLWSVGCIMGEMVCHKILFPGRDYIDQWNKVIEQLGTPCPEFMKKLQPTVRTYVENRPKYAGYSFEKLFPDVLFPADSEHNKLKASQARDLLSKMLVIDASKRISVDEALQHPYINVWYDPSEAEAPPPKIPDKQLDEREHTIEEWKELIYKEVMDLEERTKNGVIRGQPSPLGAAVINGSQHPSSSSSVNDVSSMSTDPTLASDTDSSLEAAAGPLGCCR
Sequence of Vascular endothelial growth factor receptor 3 (P35916 whole entry): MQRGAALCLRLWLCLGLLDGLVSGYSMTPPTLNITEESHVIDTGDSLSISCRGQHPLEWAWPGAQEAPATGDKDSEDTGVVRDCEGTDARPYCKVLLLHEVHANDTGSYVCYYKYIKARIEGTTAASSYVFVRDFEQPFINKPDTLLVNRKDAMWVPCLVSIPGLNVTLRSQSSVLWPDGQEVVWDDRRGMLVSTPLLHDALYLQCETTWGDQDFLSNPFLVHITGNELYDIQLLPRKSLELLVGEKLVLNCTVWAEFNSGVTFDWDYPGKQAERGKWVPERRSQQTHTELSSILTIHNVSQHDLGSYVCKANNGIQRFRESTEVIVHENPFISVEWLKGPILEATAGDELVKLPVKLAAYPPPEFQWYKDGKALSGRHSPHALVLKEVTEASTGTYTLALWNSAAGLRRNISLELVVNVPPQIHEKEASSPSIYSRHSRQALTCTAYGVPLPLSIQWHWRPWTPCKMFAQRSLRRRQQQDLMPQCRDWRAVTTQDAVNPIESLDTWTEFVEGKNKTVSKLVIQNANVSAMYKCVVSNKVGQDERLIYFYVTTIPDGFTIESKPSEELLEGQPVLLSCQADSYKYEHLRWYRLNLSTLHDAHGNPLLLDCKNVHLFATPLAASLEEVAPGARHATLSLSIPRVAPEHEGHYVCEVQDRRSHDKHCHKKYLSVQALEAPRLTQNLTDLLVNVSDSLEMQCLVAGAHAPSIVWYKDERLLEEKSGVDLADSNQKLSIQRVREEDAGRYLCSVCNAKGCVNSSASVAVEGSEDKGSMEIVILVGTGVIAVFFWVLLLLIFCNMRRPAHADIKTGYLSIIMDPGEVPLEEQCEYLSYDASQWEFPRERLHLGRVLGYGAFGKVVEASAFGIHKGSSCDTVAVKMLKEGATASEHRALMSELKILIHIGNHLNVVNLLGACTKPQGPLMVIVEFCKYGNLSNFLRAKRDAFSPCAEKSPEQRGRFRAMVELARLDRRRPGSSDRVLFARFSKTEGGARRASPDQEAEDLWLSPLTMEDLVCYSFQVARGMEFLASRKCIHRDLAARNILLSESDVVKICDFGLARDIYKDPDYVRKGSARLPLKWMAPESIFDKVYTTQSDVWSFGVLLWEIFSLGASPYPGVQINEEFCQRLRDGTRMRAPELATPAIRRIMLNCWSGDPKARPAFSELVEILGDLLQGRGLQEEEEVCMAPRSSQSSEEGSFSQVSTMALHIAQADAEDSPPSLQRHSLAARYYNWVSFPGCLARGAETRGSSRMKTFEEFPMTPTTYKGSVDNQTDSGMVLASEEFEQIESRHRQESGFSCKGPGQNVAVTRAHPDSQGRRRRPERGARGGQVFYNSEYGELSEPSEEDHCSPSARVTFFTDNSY
Sequence of Cytochrome P450 2D6 (P10635 whole entry): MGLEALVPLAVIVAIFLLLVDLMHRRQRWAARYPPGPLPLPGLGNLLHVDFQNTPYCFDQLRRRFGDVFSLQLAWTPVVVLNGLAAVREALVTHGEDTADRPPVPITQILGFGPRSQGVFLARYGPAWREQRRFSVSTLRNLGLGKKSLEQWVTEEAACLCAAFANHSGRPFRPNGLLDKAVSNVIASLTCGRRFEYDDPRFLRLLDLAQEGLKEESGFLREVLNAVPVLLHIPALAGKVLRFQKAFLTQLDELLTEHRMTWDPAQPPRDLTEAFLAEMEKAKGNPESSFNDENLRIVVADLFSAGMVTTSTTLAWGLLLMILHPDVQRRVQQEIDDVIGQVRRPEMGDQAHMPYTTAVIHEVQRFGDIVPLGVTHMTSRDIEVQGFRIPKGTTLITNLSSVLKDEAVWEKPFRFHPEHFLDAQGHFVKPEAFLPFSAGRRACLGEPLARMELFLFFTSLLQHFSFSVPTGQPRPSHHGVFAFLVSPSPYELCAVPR
Sequence of Cytochrome P450 3A4 (P08684 whole entry): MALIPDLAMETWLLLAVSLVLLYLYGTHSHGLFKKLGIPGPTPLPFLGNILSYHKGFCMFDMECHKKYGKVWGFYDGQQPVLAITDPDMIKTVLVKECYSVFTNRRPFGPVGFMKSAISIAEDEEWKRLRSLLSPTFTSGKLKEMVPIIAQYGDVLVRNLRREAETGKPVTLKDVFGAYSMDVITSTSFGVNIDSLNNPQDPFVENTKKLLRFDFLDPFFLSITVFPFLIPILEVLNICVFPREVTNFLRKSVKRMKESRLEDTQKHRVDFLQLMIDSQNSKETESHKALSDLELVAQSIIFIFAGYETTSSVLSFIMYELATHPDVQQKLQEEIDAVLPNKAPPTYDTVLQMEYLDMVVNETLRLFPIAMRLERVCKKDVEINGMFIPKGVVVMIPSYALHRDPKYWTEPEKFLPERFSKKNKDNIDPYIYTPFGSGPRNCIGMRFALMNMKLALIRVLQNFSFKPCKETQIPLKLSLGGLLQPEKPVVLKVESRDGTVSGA
Sequence of Serine/threonine-protein kinase B-raf (Homo sapiens), P15056 [V600E] (P15056 whole entry V600E): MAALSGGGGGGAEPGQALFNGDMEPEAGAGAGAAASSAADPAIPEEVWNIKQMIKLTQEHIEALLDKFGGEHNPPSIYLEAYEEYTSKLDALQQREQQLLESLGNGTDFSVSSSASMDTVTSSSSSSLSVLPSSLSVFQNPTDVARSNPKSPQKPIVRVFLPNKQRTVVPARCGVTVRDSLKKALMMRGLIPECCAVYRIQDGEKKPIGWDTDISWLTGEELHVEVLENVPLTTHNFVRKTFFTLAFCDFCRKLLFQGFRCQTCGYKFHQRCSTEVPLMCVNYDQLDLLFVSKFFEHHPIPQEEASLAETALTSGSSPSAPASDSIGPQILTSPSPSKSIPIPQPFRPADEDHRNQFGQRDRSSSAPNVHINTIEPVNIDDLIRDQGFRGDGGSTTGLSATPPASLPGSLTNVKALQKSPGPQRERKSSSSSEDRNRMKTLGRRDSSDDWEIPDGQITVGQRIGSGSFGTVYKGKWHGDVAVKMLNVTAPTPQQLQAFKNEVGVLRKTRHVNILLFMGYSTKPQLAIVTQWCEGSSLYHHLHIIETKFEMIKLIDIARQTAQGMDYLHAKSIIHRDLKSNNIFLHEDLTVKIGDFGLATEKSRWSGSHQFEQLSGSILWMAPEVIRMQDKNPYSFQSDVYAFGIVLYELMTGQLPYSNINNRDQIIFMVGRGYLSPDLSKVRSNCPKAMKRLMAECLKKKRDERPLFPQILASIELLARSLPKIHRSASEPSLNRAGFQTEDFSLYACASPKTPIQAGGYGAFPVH
Sequence of Mitogen-activated protein kinase 9 (P45984 whole entry): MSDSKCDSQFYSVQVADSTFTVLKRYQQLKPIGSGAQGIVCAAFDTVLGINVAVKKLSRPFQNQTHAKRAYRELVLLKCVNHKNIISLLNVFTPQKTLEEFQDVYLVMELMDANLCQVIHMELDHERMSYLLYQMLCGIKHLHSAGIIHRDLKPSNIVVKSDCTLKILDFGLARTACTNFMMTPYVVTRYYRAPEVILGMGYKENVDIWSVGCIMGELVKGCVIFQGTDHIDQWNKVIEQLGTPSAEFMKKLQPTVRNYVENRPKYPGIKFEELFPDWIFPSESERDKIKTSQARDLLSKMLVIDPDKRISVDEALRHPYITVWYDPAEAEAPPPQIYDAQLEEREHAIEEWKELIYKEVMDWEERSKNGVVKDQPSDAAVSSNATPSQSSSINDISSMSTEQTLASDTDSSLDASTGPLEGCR

`O=C(NCCCNc1cc(-c2cn(-c3ccccc3)nc2-c2cccc(O)c2)ccn1)Nc1ccc(F)cc1` showed an inhibition [1] of 94%, an IC50 [2] of 0.83 µM and a TGI [2] of 3.42 µM. The inhibition [3] was 52%, the IC50 [4] was 0.98 µM and the TGI [4] was 5.31 µM. The IC50 [5] was 1.25 µM, the TGI [5] was 15.6 µM and the IC50 [6] was 16.8 µM. It also gave an IC50 [7] of 0.87 µM, a TGI [7] of 5.47 µM and an IC50 [8] of 6.78 µM. The TGI [8] was 20.3 µM, the IC50 [9] was 1.38 µM and the TGI [9] was 4.84 µM. It also gave an IC50 [10] of 2.34 µM, a TGI [10] of 6.28 µM and an IC50 [11] of 2.16 µM. The TGI [11] was 8.69 µM, the IC50 [12] was 1.58 µM and the TGI [12] was 9.7 µM. For the same molecule, the Activity [13] was 32.4%, the IC50 [14] was 3.84 µM and the IC50 [15] was 5.54 µM. The IC50 [16] was 0.791 µM, the “fold change (FC)” value [17] was 1.84 and the IC50 [18] was 2.74 µM. For the same molecule, the TGI [18] was 9.51 µM, the IC50 [19] was 1.21 µM and the TGI [19] was 4.96 µM. The IC50 [20] was 1 µM, the IC50 [21] was 2.13 µM and the TGI [21] was 9.26 µM. It also gave an IC50 [22] of 1.66 µM, a TGI [22] of 5.05 µM and an IC50 [23] of 1.64 µM. It also gave a TGI [23] of 4.83 µM, an IC50 [24] of 3.12 µM and a TGI [24] of 10.8 µM. The Activity [25] was 8.5%, the IC50 [26] was 1.33 µM and the TGI [26] was 8.92 µM. It also gave an IC50 [27] of 3.29 µM, a TGI [27] of 9.75 µM and an IC50 [28] of 1 µM. The “fold change (FC)” value [29] was 2.75, the inhibition [30] was 4% and the IC50 [31] was 0.94 µM. For the same molecule, the TGI [31] was 4.04 µM, the IC50 [32] was 3.16 µM and the TGI [32] was 14.2 µM. The Ratio IC50 [33] was 8.2, the IC50 [34] was 18.7 µM and the IC50 [35] was 1.09 µM. It also gave a TGI [35] of 4.05 µM, an IC50 [36] of 0.86 µM and a TGI [36] of 4.97 µM. For the same molecule, the IC50 [37] was 3.37 µM and the TGI [37] was 9.12 µM.

With `COc1cccc(-c2nn(-c3ccccc3)cc2-c2ccnc(NCCCNC(=O)Nc3ccc(F)cc3)c2)c1` the inhibition [1] was 3%, the IC50 [2] was 5.45 µM and the TGI [2] was 10.6 µM. The IC50 [4] was 6.24 µM, the TGI [4] was 17.9 µM and the IC50 [5] was 3.94 µM. It also gave a TGI [5] of 19 µM, an IC50 [6] greater than 20 µM and an IC50 [7] of 5.96 µM. For the same molecule, the TGI [7] was 24.6 µM, the IC50 [8] was 21.2 µM and the TGI [8] was greater than 37 µM. For the same molecule, the IC50 [9] was 7.16 µM, the TGI [9] was 21.7 µM and the IC50 [10] was 8.17 µM. It also gave a TGI [10] of 29.3 µM, an IC50 [11] of 6.18 µM and a TGI [11] greater than 37 µM. It also gave an IC50 [12] of 5.1 µM, a TGI [12] greater than 37 µM and an IC50 [18] of 9.63 µM. For the same molecule, the TGI [18] was greater than 37 µM, the IC50 [19] was 7.37 µM and the TGI [19] was 31.4 µM. For the same molecule, the IC50 [21] was 10.6 µM, the TGI [21] was greater than 37 µM and the IC50 [22] was 5.61 µM. For the same molecule, the TGI [22] was 12.8 µM, the IC50 [23] was 5.64 µM and the TGI [23] was 10.8 µM. It also gave an IC50 [24] of 10.8 µM, a TGI [24] greater than 37 µM and an IC50 [26] of 6.23 µM. It also gave a TGI [26] greater than 37 µM, an IC50 [27] of 12.1 µM and a TGI [27] greater than 37 µM. The IC50 [31] was 7.64 µM, the TGI [31] was greater than 37 µM and the IC50 [32] was 10.6 µM. It also gave a TGI [32] greater than 37 µM, an IC50 [35] of 7.38 µM and a TGI [35] of 20 µM. It also gave an IC50 [36] of 6.25 µM, a TGI [36] of 31.1 µM and an IC50 [37] of 11.2 µM. For the same molecule, the TGI [37] was greater than 37 µM.
